Source: patent US9404142B2, “Screening methods for identifying Plasmodium proteases inhibitors” (Institut Pasteur, priority 2010, dated 2016)
Like-named read-outs stand apart in the source and are kept apart here.

Tests used:
[1] = biological target: recombinant PvSUB1 (Plasmodium vivax, UniProt E6Y8B9); test: FRET-based PvSUB1 enzymatic assay, Ki determination; assay type: biochemical; settings: Dabsyl Edans substrate; mean of at least three independent experiments ± SEM
Procedure: FIG. 2B depicts the FRET-based specific enzymatic assay which was used. In this particular case the assay consists in measuring fluorescence of tagged peptidic substrate of SUB1. An uncleaved peptide has low intensity emission whereas, when the peptide is cleaved by SUB1, high intensity emissions are measured. […] Molecules where thus tested and their Ki (inhibition constant) was determined on the PvSUB1 recombinant enzyme. FIG. 2C provides determination of the Ki of the AG6, AG1 and BH5 compounds for the recombinant PvSUB1 enzyme with the Dabsyl Edans substrate. Ten different concentrations, ranging from 300 μM to 585 nM following sequential 1:2 dilutions, of the compounds were tested using the PvSUB1 enzymatic assay. The final mixture was distributed in duplicate into a 384-well black microtiter plate (Thermo Scientific) and the fluorescence was monitored. The slope of the linear part of the kinetic was determined in an Excel™ (Microsoft) spreadsheet. The Ki and EC50 values expressed in μM were determined using GraphPad Prism™ software. […]
For the kinetic assays we used the recombinant PvSUB1/PfSUB1 enzymes and specific peptide substrates whose sequence are deduced from the auto-maturation site of each one: KLVGADDVSLA (SEQ ID NO: 9), which cleavage occurs between the two aspartates for PvSUB1 and KLVSADNIDIS (SEQ ID NO: 11) which is cleaved between the aspartate and the asparagine for PfSUB1. […] The final mixture was distributed in duplicate into a 384-well black microtiter plate (Thermo Scientific) and the fluorescence was monitored every 3 minutes for 90 min at 37° C. in a Labsystems Fluoroskan Ascent™ spectrofluorometer or a Tecan Infinite M1000™ spectrofluorometer using the excitation and emission wavelengths of […] or 620/680 nm for the Dabsyl/Edans or DYQ660/DY630 substrates respectively. The slope of the linear part of the kinetic was determined in an Excel™ (Microsoft) spreadsheet. Every steps of the enzymatic assay were done on ice to make sure that the protein was not active before the measure of the fluorescence. […]

[2] = tested on: P. falciparum 3D7 strain; test: In vitro drug susceptibility assay on P. falciparum culture, clone 3D7; assay type: cell-based; settings: Plasmodium falciparum
Procedure: FIG. 2B depicts the FRET-based specific enzymatic assay which was used. In this particular case the assay consists in measuring fluorescence of tagged peptidic substrate of SUB1. […] Molecules where thus tested and their Ki (inhibition constant) was determined on the PvSUB1 recombinant enzyme. FIG. 2C provides determination of the Ki of the AG6, AG1 and BH5 compounds for the recombinant PvSUB1 enzyme with the Dabsyl Edans substrate. […] The final mixture was distributed in duplicate into a 384-well black microtiter plate (Thermo Scientific) and the fluorescence was monitored. The slope of the linear part of the kinetic was determined in an Excel™ (Microsoft) spreadsheet. The Ki and EC50 values expressed in μM were determined using GraphPad Prism™ software.
Parasites were incubated at 37° C. in an atmosphere composed of 5% O2, 5% CO2 and 90% N2. […] IC50/EC50 have been determined following nonlinear regression analysis using HN-NonLin V1.1 software (malaria.farch.net).

[3] = tested on: P. falciparum Dd2 strain; test: In vitro drug susceptibility assay on P. falciparum culture, clone Dd2; assay type: cell-based; settings: Plasmodium falciparum, DD2, read-out: IC50 on P. falciparum Dd2 strain
[4] = tested on: P. falciparum (3D7 clone) segmented schizonts; test: Merozoite egress/invasion, flow cytometry (YOYO-1) on segmented schizonts; assay type: cell-based, Plasmodium falciparum; settings: 90 μM, 12 hr, serum-containing medium
Procedure: Next, the selected SUB1 inhibitors were evaluated biologically for their impact on P. falciparum 3D7 stage-specific ex vivo culture. […] In vitro synchronized culture of P. falciparum composed of 0.5% of segmented schizonts (To) was cultivated for 12 hr in serum-free medium in the absence (T12) or presence of DMSO (0.9% v/v) (lane DMSO). Lanes A/G1, A/G6, B/H5 correspond to parasites incubated with 90 μM of corresponding compounds. Lanes E64 and RBC correspond to parasites cultured in presence of E64 (10 μM) and uninfected erythrocytes respectively. Parasite extracts and culture supernatants were analyzed by western blot with mAb 24C6.1F1. […] Segmented schizonts (starting material, To) were cultivated for 12 hr in serum-containing medium and their transition to newly formed trophozoites-stages in presence of 0.9% DMSO (DMSO) was analysed by flow cytometry using YOYO1 Facs technique (Li et al, Cytometry, 71A, 297-307, 2007). […]
A synchronised culture composed of segmented schizonts of P. falciparum (3D7 clone) at 0.5% parasitemia and 1% hematocrit is performed in a 24 wells plate. […] The progress of the parasitaemia from segmented schizont to newly formed trophozoites was assessed by flow cytometry after staining samples by the DNA-binding fluorescent dye, YOYO-1™, as previously described by Li and colleagues [2007, Cytometry A 71: 297-307.] with some modifications. […]

[5] = biological target: PvSUB1 Dabsyl Edans substrate (Plasmodium vivax)
[6] = tested on: SERA5 maturation by SUB1; test: Inhibition of maturation of SERA5 (western blot) in synchronized P. falciparum culture; assay type: cell-based, Plasmodium falciparum; settings: compounds 90 μM, E64 10 μM; 12 hr, serum-free medium; western blot mAb 24C6.1F1
Procedure: Next, the selected SUB1 inhibitors were evaluated biologically for their impact on P. falciparum 3D7 stage-specific ex vivo culture. […] In vitro synchronized culture of P. falciparum composed of 0.5% of segmented schizonts (To) was cultivated for 12 hr in serum-free medium in the absence (T12) or presence of DMSO (0.9% v/v) (lane DMSO). Lanes A/G1, A/G6, B/H5 correspond to parasites incubated with 90 μM of corresponding compounds. Lanes E64 and RBC correspond to parasites cultured in presence of E64 (10 μM) and uninfected erythrocytes respectively. Parasite extracts and culture supernatants were analyzed by western blot with mAb 24C6.1F1. SERA5 126 kDa precursor and its processed forms of 73, 56 and 50 kDa are indicated. […] Segmented schizonts (starting material, To) were cultivated for 12 hr in serum-containing medium and their transition to newly formed trophozoites-stages in presence of 0.9% DMSO (DMSO) was analysed by flow cytometry using YOYO1 Facs technique (Li et al, Cytometry, 71A, 297-307, 2007). Gates were selected to exclude uninfected erythrocytes and converted to two-dimensional plots illustrating the consequence of the presence of tested compounds on the arrest of schizogony. All compounds were tested at 90 μM, except E64 tested at 10 μM.

[7] = biological target: PfSUB1 Dabsyl Edans substrate (Plasmodium falciparum)
[8] = chloroquino-sensitive clone 3D7, mean ± SEM, read-out: IC50 on P. falciparum 3D7 strain

Row | Molecule | Ki [1] | IC50 [2, 8] | IC50 [3] | further results
1 | COc1cccc(C2c3c(-c4ccc(F)cc4)n[nH]c3C(=O)N2c2ccccc2)c1 (stereo not shown) [A/G6] | 8.2 ± 1.9 µM | 17.7 ± 1.7 µM | 14.8 ± 6.7 µM | Arrest of schizogony / merozoite egress [4]: able to maintain the parasites to the schizonts stage
2 | recombinant enzymatically active form of Plasmodium vivax SUB1-Belem (PvSUB1-Belem) (enzyme) |  |  |  | apparent Km, FRET-based cleavage assay [5]: 19.7 µM
3 | CCN(CC)CCCC(C)Nc1ccnc2cc(Cl)ccc12 (stereo not shown) [chloroquine, reference compound] |  |  | 0.0355 ± 0.0137 µg/mL | IC50 ([2]; 3D7, read-out: IC50 on P. falciparum 3D7 strain): 0.0043 ± 0.0013 µg/mL
4 | O=C(C[n+]1cccc(C(=O)Nc2ccccc2)c1)c1ccc(NC(=O)c2ccccc2)cc1 [A/G1] | 5.5 ± 2.4 µM | 4.7 ± 1.8 µM | 3.5 ± 1.7 µM | Arrest of schizogony / merozoite egress [4]: able to maintain the parasites to the schizonts stage
5 | O=C(Cn1ncc2c3ccccc3n(Cc3cccc(Cl)c3)c2c1=O)N1CCc2ccccc21 [B/H5] | 1.4 ± 1 µM | 16.9 ± 3.3 µM | 13 ± 8.1 µM | 
6 | CC(C)C[C@H](NC(=O)[C@H]1O[C@@H]1C(=O)O)C(=O)NCCCCN=C(N)N [Compound E64] |  |  |  | Maturation of SERA5 by SUB1 successive cleavages [6]: inactive
7 | recombinant Plasmodium falciparum SUB1 (PfSUB1) (enzyme) |  |  |  | apparent Km, FRET-based cleavage assay [7]: 30.2 µM
